In series [1] the target is 5-hydroxytryptamine receptor 2A (Homo sapiens, UniProt P28223). Kind of series: Inhibition of 5-HT2A (unknown origin) assessed as inhibition constant.
Series [2] deals with Rattus norvegicus. Nature of the series: Inhibition of AII-induced hypertension in rat assessed as vasoconstrictor at 3 mg/kg, po measured after 2 hrs. The class given is functional.
The test system of a further series is Plasmodium falciparum. Nature of the series: Antimalarial activity against plasmodium falciparum 3D7 assessed as bacterial growth inhibition. The class given is functional, organism-based.
The species named for another series is Oryctolagus cuniculus. Nature of the series: Antihypertensive activity in rabbit aorta assessed as vasodilation. It counts as functional.
Series [3] concerns K562. Kind of series: Anticancer activity against human K562 cells assessed as cell growth inhibition. It counts as functional, cell-based.
Series [4] can be described thus: Anticancer activity against human CNS cell assessed as cell growth inhibition measured after 24 hrs by SRB assay. It counts as functional.
The test system of series [5] is Human immunodeficiency virus 1. Nature of the series: Antiviral activity against HIV1. It counts as functional, organism-based.
In series [6] the test system is Human immunodeficiency virus 1. Nature of the series: Therapeutic index, ratio of IC50 for antiviral activity against HIV1 to EC50 for antiviral activity against HIV1. The class given is functional.
The next series relates to UO-31. Kind of series: Anticancer activity against human UO-31 cell assessed as cell growth inhibition measured after 24 hrs by SRB assay. It counts as functional.
For another series, the system named is RXF 393. Kind of series: Anticancer activity against human RXF 393 cell assessed as cell growth inhibition measured after 24 hrs by SRB assay. It counts as functional.
Another series relates to MOLT-4. Kind of series: Anticancer activity against human MOLT-4 cell assessed as cell growth inhibition measured after 24 hrs by SRB assay. It counts as functional.
The test system of a further series is SR. Kind of series: Anticancer activity against human SR cell assessed as cell growth inhibition measured after 24 hrs by SRB assay. It counts as functional.
A further series concerns A549. Kind of series: Anticancer activity against human A549 cell assessed as cell growth inhibition measured after 24 hrs by SRB assay. It counts as functional.
In series [7] the test system is K562. Nature of the series: Anticancer activity against human K562 cell assessed as cell growth inhibition measured after 24 hrs by SRB assay. It counts as functional.
Series [8] has as its system Mus musculus. Kind of series: Analgesic activity in […] albino mouse at 20 mg/kg, po measured after 2 hrs by Tail-Flick technique relative to control. The class given is functional.
The test system of series [9] is Mus musculus. Kind of series: Analgesic activity in mouse at 100 mg/kg, ip measured after 30 mins relative to control. It counts as functional. The note with it: 0.5 h.
For series [10], the target named is Prostaglandin G/H synthase 2 (Homo sapiens) (UniProt P35354). Nature of the series: Inhibition of COXII (unknown origin) relative to control. To be noted: concentration not given here.
The nature of series [11]: Anticancer activity against human Epidermoid carcinoma cell line assessed as cell growth inhibition. The class given is functional. To be noted: read-out: ED50 (the source's name).
The subject of a further series is Ovarian carcinoma cell. Nature of the series: Anticancer activity against human Ovarian carcinoma cell assessed as cell growth inhibition. The note with it: read-out: ED50 (the source's name). It counts as functional.
The subject of series [12] is Mus musculus. Nature of the series: Analgesic activity in phenylbenzoquinone induced mouse assessed as reduction in writhing at 10 mg/kg, po measured after 1 hrs by writhing test relative to control. It counts as functional.
Series [13] deals with Mus musculus. Kind of series: Analgesic activity in acetic acid peritonitis induced mouse assessed as reduction in writhing at 10 mg/kg, po measured after 1 hrs by writhing test relative to control. The class given is functional.
The test system of series [14] is Rattus norvegicus. Nature of the series: Antiinflammatory activity in rat at assessed as reduction in paw edema relative to control. It counts as functional.
The subject of series [15] is Rattus norvegicus. Kind of series: Inhibition of AII-induced pressor response in normotensive conscious rat administered intravenously. It counts as functional. The note with it: route iv.
Series [16] concerns Rattus norvegicus. Nature of the series: Inhibition of AII-induced pressor response in normotensive conscious rat administered orally. To be noted: route po. It counts as functional.
Series [17] concerns Mus musculus. Nature of the series: Anticonvulsant activity in mouse at 100 mg/kg, ip by MES test relative to control. The class given is functional.
Series [18] deals with Mus musculus. Nature of the series: Anticonvulsant activity in PTZ induced mouse at 100 mg/kg, ip relative to control. It counts as functional.
Series [19] in a line: Cytotoxicity against human CEM/ADR5000 cells assessed as reduction in cell growth. The class given is toxicity, cell-based.
The subject of the next series is Cytomegalovirus. Nature of the series: Antiviral activity against Cytomegalovirus. To be noted: Human betaherpesvirus 5.
Series [20] relates to MCF7. Kind of series: Cell cycle arrest in human MCF7 cells assessed as reduction in G2/M phase at 10 uM G2/M phase incubated for 24 hrs relative to control. The class given is functional.
The next series relates to CA46. Kind of series: Cell cycle arrest in human CA46 cells assessed as reduction in G2/M phase at 10 uM incubated for 24 hrs relative to control. It counts as functional.
The target of the next series is Tubulin. Kind of series: Inhibition of tubulin polymerization (unknown origin) incubated for 15 mins followed by GTP addition and measured for 20 mins by spectrophotometry. It counts as protein-complex assay, Homo sapiens.
Series [21] relates to MCF7. Kind of series: Anticancer activity against human MCF7 cell assessed as cell growth inhibition measured after 48 hrs by SRB assay. It counts as functional, cell-based. The note with it: MCF7, 48 h.
Series [22] concerns Mus musculus. Nature of the series: Sedative activity in mouse assessed as sleeping time at 100 mg/kg, ip. The class given is functional.
The test system of series [23] is Mus musculus. Nature of the series: Sedative activity in mouse assessed as sleeping time at 30 mg/kg, ip. The class given is functional.
Series [24] has as its system Mus musculus. Kind of series: Anticonvulsant activity in mouse at 100 mg/kg, po measured after 30 mins relative to control. It counts as functional. To be noted: 0.5 h.
The test system of series [25] is Vaccinia virus. Nature of the series: Antiviral activity against Vaccinia virus infected in human MT4 cells measured after 5 days by MTT assay. To be noted: Orthopoxvirus vaccinia, MT4, 120 h. The class given is functional, organism-based.
In series [26] the test system is Vaccinia virus. Nature of the series: Antiviral activity against Vaccinia virus infected in human E6SM cells. The note with it: Orthopoxvirus vaccinia. It counts as functional.

Each structure is given as a SMILES string. In brackets after ≈: the same amount, converted by molar mass.

5-hydroxytryptamine receptor 2A, sequence (P28223 whole entry): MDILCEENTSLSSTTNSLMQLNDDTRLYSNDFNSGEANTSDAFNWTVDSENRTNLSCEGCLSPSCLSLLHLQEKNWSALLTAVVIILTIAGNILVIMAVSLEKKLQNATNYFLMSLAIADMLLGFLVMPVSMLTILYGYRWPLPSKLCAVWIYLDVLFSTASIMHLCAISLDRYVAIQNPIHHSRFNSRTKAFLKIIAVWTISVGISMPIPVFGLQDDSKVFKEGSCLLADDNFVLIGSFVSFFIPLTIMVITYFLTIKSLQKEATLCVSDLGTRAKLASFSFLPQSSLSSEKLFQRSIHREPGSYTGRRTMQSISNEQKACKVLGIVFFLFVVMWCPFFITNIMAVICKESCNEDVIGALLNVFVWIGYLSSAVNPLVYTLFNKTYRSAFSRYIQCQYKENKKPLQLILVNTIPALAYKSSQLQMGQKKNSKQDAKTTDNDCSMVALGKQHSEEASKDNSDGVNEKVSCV
Prostaglandin G/H synthase 2 (Homo sapiens), sequence (P35354 whole entry): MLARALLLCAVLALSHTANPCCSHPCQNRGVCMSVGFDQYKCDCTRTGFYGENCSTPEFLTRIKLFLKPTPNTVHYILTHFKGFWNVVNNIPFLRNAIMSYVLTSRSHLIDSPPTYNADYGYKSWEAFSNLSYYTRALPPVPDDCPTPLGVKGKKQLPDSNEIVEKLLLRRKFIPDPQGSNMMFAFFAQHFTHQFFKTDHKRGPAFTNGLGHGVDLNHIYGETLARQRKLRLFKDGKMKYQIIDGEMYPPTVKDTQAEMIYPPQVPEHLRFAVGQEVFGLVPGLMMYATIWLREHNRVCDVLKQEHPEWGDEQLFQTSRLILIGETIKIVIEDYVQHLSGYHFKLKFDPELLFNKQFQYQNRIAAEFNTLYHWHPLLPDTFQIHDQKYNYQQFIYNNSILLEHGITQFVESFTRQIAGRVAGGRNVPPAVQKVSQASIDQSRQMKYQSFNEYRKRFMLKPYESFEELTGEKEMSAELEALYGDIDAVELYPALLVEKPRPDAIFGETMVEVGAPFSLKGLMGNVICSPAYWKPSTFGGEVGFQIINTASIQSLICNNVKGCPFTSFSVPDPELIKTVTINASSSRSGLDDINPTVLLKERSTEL

Turning to `O=C(c1ccc(F)cc1)C1CCN(CCn2cnc3c(c2=O)CCCC3)CC1`, in series [1], the Ki was 7.59 nM.
Take `CCCCc1nc2ccc([C@H]3OC[C@H]4[C@@H]3ON3[C@@H]4CCC3(C)C)cc2c(=O)n1Cc1ccc(-c2ccccc2-c2nn[nH]n2)cc1`: the Activity in the series on Rattus norvegicus [2] is reported as 70 mmHg.
For `Cc1nc2c(c(=O)n1CCN1CCC(C(=O)c3ccc(F)cc3)CC1)CCCC2`, the Ki in [1] was 2.63 nM.
As for `C[C@@H]1CC[C@H]2[C@@H](C)C(=O)O[C@@H]3O[C@@]4(C)CC[C@@H]1[C@]32OO4` [ARTEMISININ], the EC50 in the series on Plasmodium falciparum came to 2.4 nM.
As for `CC(=O)OC1C([N+](=O)[O-])c2ccc(Cl)cc2C(=O)N1[N+](=O)[O-]` (stereo not given), the pD2 in the series listed under Oryctolagus cuniculus is 5.4.
With `CCN(CC)C(=S)SCc1ccc2nc(C)nc(O)c2c1`, the IC50 in the series on K562 [3] stood at 500 nM.
For the compound `Cc1ccc2c(c1)/C(=N\NC(=O)CSc1nc3ccccc3c(=O)n1-c1ccccc1)C(=O)N2`, the GI50 is 209 nM in [4], 209 nM in the series with UO-31 and 1660 nM in the series with RXF 393. The same compound registered an EC50 in series [5] of 68100 nM. Further, in series [5], the IC50 is greater than 100000 nM. Further, in [6], the “Ratio IC50/EC50” value is greater than 1.47.
Take `CC(=O)OC1C([N+](=O)[O-])c2ccccc2C(=O)N1[N+](=O)[O-]` (stereo not given): in the series filed under Oryctolagus cuniculus, the pD2 worked out at 5.36.
On to `O=c1[nH]cc(F)c(=O)[nH]1` [FLUOROURACIL], for which the GI50 with MOLT-4 was 17000 nM; in series [4], 42700 nM; with SR, 1620 nM; with A549, 1050 nM; with K562 [7], 407 nM; in the series on UO-31 it was 6760 nM. Besides, the concentration for 50% growth inhibition (GI50) in the series with RXF 393 was 55000 nM.
In the case of `COc1ccccc1C1SCC(=O)N1NCC(=O)Cc1nc2ccccc2c(=O)n1-c1c(C)[nH]c2ccccc12` (stereo not given), the Activity with Mus musculus [8] and in the series on Mus musculus [9] was 80% in each case. The inhibition in series [10] amounted to 90%.
Take `COc1cccc(-c2nc(O)c3cc(OC)ccc3n2)c1`: the EC50 (in series [11]; in the series on Ovarian carcinoma cell) was less than 5 µg/mL each time.
With `CCCCC1C(=O)N(c2ccccc2)N(c2ccccc2)C1=O` [PHENYLBUTAZONE], the inhibition in vivo at 10 mg/kg in the series with Mus musculus [12] came to 25%; in the series with Mus musculus [13], 11%. Moreover, in the series with Rattus norvegicus [14], the “inhibition (INH)” value was determined as 38.9%.
Regarding `Nc1nc2[nH]cnc2c(=S)[nH]1` [THIOGUANINE], the GI50 in the series with MOLT-4 was 9120 nM; in series [4], 4900 nM; with SR, 1620 nM; with A549, 3550 nM; in the series with K562 [7] it was 195 nM; in the series with UO-31, 1480 nM. In the series on RXF 393, the 50% growth inhibitory concentration (GI50) is 759 nM.
Turning to `CCCCc1nc2ccc(C(C)C)cc2c(=O)n1Cc1ccc(-c2ccccc2S(=O)(=O)NC(=O)C2CC2)cc1`, the ED50 in the series on Rattus norvegicus [15] was 0.25 mg/kg; in the series with Rattus norvegicus [16] it was 0.68 mg/kg.
Consider `CCn1c(SCC(=O)NN2C(=O)C(C)S/C2=N\c2ccccc2)nc2ccccc2c1=O` (stereo not given), for which the Activity in the series on Mus musculus [17] and in the series on Mus musculus [18] was 66% each time.
As to `C[C@H]1[C@H](OC(=O)CCC(=O)O)O[C@@H]2O[C@@]3(C)CC[C@H]4[C@H](C)CC[C@@H]1[C@@]24OO3` [ARTESUNATE], in series [19], the EC50 turned out to be 500 nM.
As to `Nc1nc2c(ncn2COC(CO)CO)c(=O)[nH]1` [GANCICLOVIR], the EC50 in the series on Cytomegalovirus came to 2600 nM.
On to `O=c1c2cc(Cl)ccc2nc(/C=C/c2ccccc2)n1-c1ncccn1`, for which the inhibition at 10 µM in the series on MCF7 [20] worked out at 20%; in the series on CA46, 66%. For the same compound, the IC50 at Tubulin stood at 5980 nM; in the series with MCF7 [21], 310 nM.
On to `Cc1ccccc1-n1c(C)nc2ccccc2c1=O` [METHAQUALONE], for which the values for the Time with Mus musculus [22] and in the series on Mus musculus [23] were 119.7 min and 5.5 min, respectively. In the series with Mus musculus [24], this compound showed an Activity of 20%.
`CCc1nc(-n2c(-c3ccccc3)nc3ccc(Br)cc3c2=O)nc(N)c1-c1ccc(Cl)cc1` returned a half-maximal inhibitory concentration (IC50) in the series with Vaccinia virus [25] of 0.424 µg/mL (≈ 0.796 µM). In addition, the MIC against Vaccinia virus [26] turned out to be 1.92 µg/mL (≈ 3.6 µM).

The values above are taken from ChEMBL document CHEMBL5260833, “An overview of quinazolines: Pharmacological significance and recent developments” (Eur J Med Chem, 2018).
